A word on the Kd: it is the concentration at which binding is half-saturated.

In data set [1] the target is T1, LTD4 receptor (guinea-pig lung membranes) (Cavia porcellus, UniProt Q2NNR5).
T1 sequence (Q2NNR5 1-340): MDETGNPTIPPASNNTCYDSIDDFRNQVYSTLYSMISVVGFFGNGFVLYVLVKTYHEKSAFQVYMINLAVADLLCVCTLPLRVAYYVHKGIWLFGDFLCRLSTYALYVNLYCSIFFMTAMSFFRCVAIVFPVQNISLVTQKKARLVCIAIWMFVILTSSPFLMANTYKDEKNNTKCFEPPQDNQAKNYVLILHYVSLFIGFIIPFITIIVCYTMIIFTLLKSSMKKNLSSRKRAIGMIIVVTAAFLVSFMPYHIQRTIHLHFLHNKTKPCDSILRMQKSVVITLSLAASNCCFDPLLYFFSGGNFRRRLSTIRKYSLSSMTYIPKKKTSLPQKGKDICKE
The settings on record: 60 pM radioligand, 20-30 μg membrane protein. On the procedure: Guinea pigs (male; 350 g) were sacrificed by cervical dislocation and the lung tissues removed. All subsequent procedures were performed either on ice or at 4° C. Connective tissue, trachea, large blood vessels and major airways were dissected away and the remaining lung tissue (primarily parenchyma) was finely minced prior to homogenisation in 10 vol of 10 mM HEPES/KOH pH 7.4, containing 0.25 M sucrose, 2 mM EDTA, 2 mM phenylmethylsulphonyl fluoride, 10 μg/ml pepstatin, 10 μg/ml leupeptin and 10 μM E-64, using 5 s bursts of a polytron (Brinkman Instruments). The homogenate was subjected to differential centrifugation at 1000×g for 10 min, 10,000×g for 10 min and 100,000×g for 40 min. The resulting 100,000×g pellets were resuspended in 10 mM HEPES/KOH pH 7.4, containing 10% (w/v) sucrose, at a final protein concentration of 1-2 mg/ml. This tissue suspension was carefully layered over 10 mM HEPES/KOH pH 7.4 containing 40% (w/v) sucrose in a 3:2 (v/v) ratio. The discontinuous sucrose gradient was centrifuged at 83,000×g for 60 min. The membrane fraction located at the interface of the sucrose gradient layers was recovered, diluted 10-fold in 10 mM HEPES/KOH pH 7.4 and further centrifuged at 150,000×g for 40 min. The final membrane pellets were resuspended in 10 mM HEPES/KOH pH 7.4 at a protein concentration of 2-4 mg/ml and stored at […].
Filters were then washed with 16 ml of 10 mM HEPES/KOH, pH 7.4 containing 0.01% (w/v) bovine serum albumin, at 4° C.
FIG. 4. […] Radiolabelled proteins were resolved by SDS-PAGE and visualized by autoradiography. […] In addition, photoaffinity labelled membranes were subjected to immunoprecipitation with RAGpAlb (Lane C) and non-immune rabbit serum (Lane D), as described in the Methods. The migration of molecular weight standards is indicated on the left. FIGS. 5(A)-5(C). […] Results are expressed as percentage of maximum specific binding as a function of CaCl2 concentration. […] Only the results for total binding are shown.
Results are expressed as percentage of maximum specific binding as a function of nucleotide concentration. […] Only the results for total binding are shown.
Results are expressed as percentage of maximum specific binding as a function of cation concentration. […] Only the results for total binding are shown.

A short description of data set [2]: RP-HPLC stability of [125I]Azido-LTD4 under binding assay conditions with guinea-pig lung membrane. The settings on record: 60 min. It is filed as in vitro ADME. On the procedure: RP-HPLC was conducted to assess the stability of [^125 I]Azido-LTD4 under binding assay conditions. […] Following a 60 min incubation at room temperature, samples were centrifuged at 150,000×g for 15 min at 4° C. The supernatant (unbound radioligand) was removed and the membrane pellet was resuspended by sonication in 150 μl of RP-HPLC solvent ([…] (v/v) MeOH:H2O:HOAc containing 0.01% 2-mercaptoethanol and 0.5 mM EDTA). The samples were centrifuged at 150,000×g for 15 min at 4° C. and the supernatent removed (bound radioligand). Bound and unbound radioligand fractions (100 μl) were analysed by RP-HPLC using a Nova Pac C18 column (0.39 ×15 cm; Waters Assoc.) eluted isocratically at a flow rate of 1 ml/min with RP-HPLC solvent. The profile of iodinated material from bound and unbound radioligand samples was determined by on-line solid scintillation gamma counting (Berthold HPLC radioactivity monitor LB 506 C1). [^125 I]Azido-LTD4 was identified by […] of non-radioactive [^127 I]Azido-LTD4 monitored by optical density at 280 nm.
FIGS. 2(A) and 2(B) RP-HPLC analysis of [^125 I]Azido-LTD4 stability. RP-HPLC was used to assess the stability of [^125 I]Azido-LDT4 under the conditions routinely employed for binding assays as described in the Methods.

The subject of data set [3] is 66.2 kDa protein (guinea-pig serum albumin). As to the kind of experiment: Photoaffinity labelling of 66.2 kDa protein and immunoprecipitation with rabbit anti-guinea-pig albumin antisera. It is filed as binding. The settings on record: lung membranes and guinea-pig serum. On the procedure: Samples were incubated for 60 min at room temperature. Aliquots (2×500 μl) were then removed and the bound [^125 I]Azido-LTD4 quantified as described for the filtration binding assays. The residual samples were then transferred to 25 mm diameter cluster plate well for photolysis. The cluster plates were placed on aluminium blocks, pre-cooled to -20° C., and illuminated from above with a 40 W ultraviolet light source (Phillips, γmax =350 nm) at a distance of 10 cm for 2 min. The guinea-pig lung membranes were then recovered from 1 ml sample aliquots by centrifugation at 150,000×g for 15 min at 4° C. and solubilized in sodium dodecyl sulphate polyacrylamide gel electrophoresis (SDS-PAGE) sample buffer prior to resolution of the proteins by SDS-PAGE (Laemmli, 1970). Protein bands were visualized by Coomassie Blue staining while radiolabelled proteins were identified by autoradiography of dried gels and quantified by laser densitometry (Molecular Dynamics, ImageQuant).
The TXIP solubilized samples were centrifuged at 14,000×g for 15 min at 4° C. and the supernatant mixed directly with 50 μl of non-immune rabbit serum or RAGpAlb premixed for 15 min at 4° C. with 80 μl of protein A-Sepharose (50 mg/ml in TXIP). […] The final immunocomplex was dissociated by resuspension in SDS-PAGE sample buffer for 5 min at 95° C. and analysed by SDS-PAGE and autoradiography of the dried gels. […]

For data set [4], the target named is T1, LTD4 receptor (guinea-pig lung membranes). As to the kind of experiment: Rates of association and dissociation of radioligand binding to guinea-pig lung membranes. Also noted: Guinea pigs (male; from tissue; host or cells: guinea-pig lung (primarily parenchyma), sucrose-gradient membrane fraction. On the procedure: FIG. 3. […] Aliquots (500 μl) were removed and filtered at the required time intervals.

For data set [5] the target is unchanged. In words: Saturation binding to guinea-pig lung membranes, Scatchard plot analysis. The arrangement: Guinea pigs (male; 350 g) were sacrificed by cervical dislocation and the lung tissues removed; from tissue; host or cells: guinea-pig lung (primarily parenchyma), sucrose-gradient membrane fraction.
Data set [6] deals with 45 kDa guinea-pig lung membrane protein. As to the kind of experiment: Deglycosylation of the photoaffinity labelled 45 kDa guinea-pig lung membrane protein by N-Glycosidase F. It is filed as biochemical. The settings on record: 1 μM LTD4. On the procedure:
FIG. 10. […] Following photolysis the guinea-pig lung membranes were recovered from 1 ml sample aliquots by centrifugation at 150,000×g for 15 min at 4° C. The membranes were then solubilized in 20 μl of incubation buffer (20 mM NaHPO4, pH 7.4, containing 10 mM EDTA and 1 % (v/v) 2-mercaptoethanol) containing 1 % (w/v) SDS. The solubilized preparation was then diluted with incubation buffer to a final volume of 200 μl containing 1 % (w/v) octylglucoside and 0-60 U / ml of recombinant N-Glycosidase F, and incubated overnight at room temperature. Samples were further diluted in 3-fold concentrated SDS sample buffer and analysed by SDS-PAGE, followed by autoradiography. […] The migration of the molecular weight standards is indicated on the left.
In every case the only detectable product was the 40 kDa protein. […] This is also supported by qualitative evidence since the radiolabelled precursor migrated as a diffuse band during SDS-PAGE, behaviour typical of glycoproteins, while the deglycosylated product migrated as a more focused band.

With `CCCCC/C=C\C\C=C/C=C/C=C/[C@@H](SC[C@H](NC(=O)CCCCCNC(=O)c1cc([125I])c(N=[N+]=[N-])cc1O)C(=O)NCC(=O)O)[C@@H](O)CCCC(=O)O` [[^125 I]Azido-LTD4], in data set [1], the “fraction of added radioligand bound to guinea-pig lung membranes” value was 10-20%. Further, the stability of radioligand entry in data set [2] (room temperature, lung membrane, pH 7.4) is “completely stable”. Moreover, the “recovery of radioactive material following RP-HPLC” value in data set [2] (bound and unbound fractions after incubation with lung membrane, 60 pM) was “approximately 100%”. Also, the “radiolabelling of 66.2 kDa protein (selectivity)” value in data set [3] is recorded as “non-selectively labelled”. Besides, the “dissociation of binding by 1 μM LTD4” value in data set [4] (1 μM LTD4, additional 50 min incubation) was “approximately 50%”. Also, in data set [4] (guinea-pig lung membranes), the “association: time to reach equilibrium” value is given as 60 min. Further, the “dissociation of binding by 1 μM LTD4 with 10 μM GTPγS” value in data set [4] (to non-specific levels) is “almost instantaneous and complete dissociation”. Besides, in data set [5] (Scatchard, single site), the “maximum number of binding sites (Bmax)” value turned out to be 1000 fmol/mg protein. In data set [5] (read-out: equilibrium dissociation constant (KD)), the Kd worked out at 0.2 nM.

On to `CCCCC/C=C\C\C=C/C=C/C=C/[C@@H](SC[C@H](N)C(=O)NCC(=O)O)[C@@H](O)CCCC(=O)O` [LTD4], for which, in data set [6], the “presence of radiolabelled precursor and product after pretreatment with LTD4” value is on record as “not present”.

Source of the values: patent US5310884A (Merck Frosst Canada, Inc., priority 1992, dated 1994).
